# Test results from patent US10251408B2, “Catechin function enhancement method” (KYUSHU UNIVERSITY, NATIONAL UNIVERSITY CORPORATION, priority 2014, dated 2019).
# Columns and labels:
# caspase-3 = assay: Caspase-3 activation in MPC-11 tumor sections (immunohistological staining); format: in vivo, mouse; conditions: MPC-11-implanted balb/c mice; EGCG 15 mg/kg i.p. and eriodictyol 15 mg/kg i.p.; after 6 hours; FIG. 13
# Procedure: After female balb/c mice at 5 weeks of age were preliminarily kept for 2 weeks, a cell suspension of mouse multiple myeloma cell line MPC-11 suspended at 5×10^6 cells/mL in RPMI medium was implanted by subcutaneous injection in a volume of 200 μL into the right dorsal region of each mouse. At 11 days after implantation, the mice were administered […] with EGCG (15 mg/kg i.p.) and eriodictyol (15 mg/kg i.p.) and then sacrificed after 6 hours. Tumors were excised and tissue sections were prepared therefrom, followed by immunohistological staining to determine the number of cells where caspase-3 was activated. To examine the effect of eriodictyol on EGCG-induced activation of caspase-3 indicative of 67LR-dependent cancer cell death induction mechanism activity, female balb/c mice at 5 weeks of age were implanted with mouse multiple myeloma cell line MPC-11 by subcutaneous injection. At 11 days after implantation, the mice were administered with EGCG (15 mg/kg i.p.) and eriodictyol (15 mg/kg i.p.) and then sacrificed after 6 hours. Tissue sections were prepared from the excised tumors and evaluated for the activation state of caspase-3.
# [1] = system: tail suspension test-induced disuse amyotrophy in mice; assay: Tail suspension test-induced disuse amyotrophy (quadriceps femoris weight); format: in vivo, mouse; conditions: C57BL/6J mice; 5 mg/kg intragastric once a day; tail suspension for 10 days from day 7; FIG. 4
# Procedure: Male C57BL/6J mice at 12 weeks of age were divided into 5 groups such that the average body weight was equal in all groups, i.e., a GR (ground) group, a TS (tail suspension) group, an EGCG group, an eriodictyol group, and an EGCG+eriodictyol group. From the beginning of grouping, the GR and TS groups received physiological saline, the EGCG group received EGCG and the eriodictyol group received eriodictyol (5 mg/kg) by intragastric administration, while the EGCG+eriodictyol group received EGCG and eriodictyol (5 mg/kg) by intragastric administration through a sonde. For 7 days from the beginning of grouping, all the groups were kept under normal conditions, and the TS, EGCG, eriodictyol, and EGCG+eriodictyol groups were then subjected to a tail suspension test. After the tail suspension test for 10 days (at 17 days after initiation of the experiment), all the mice were sacrificed by abdominal aortic puncture under isoflurane anesthesia, and the quadriceps femoris was excised from each mouse and measured for its weight. Each sample was administered daily throughout the experimental period. […] At 10 days after starting the tail suspension test, the mice were sacrificed by abdominal aortic puncture under isoflurane anesthesia, and the quadriceps femoris was excised from each mouse and measured for its weight.
# [2] = system: Human multiple myeloma cell line U266; assay: Anticancer effect, viable cells by trypan blue assay (24-well plates, FIG. 14-19); format: cell-based; conditions: 5 μM each, 96 hours
# Procedure: Human multiple myeloma cell line U266 was subcultured and maintained in RPMI 1640 medium supplemented with 10% fetal bovine serum (FCS) under conditions of 37° C. and water vapor-saturated 5% CO2. The cells were maintained in the logarithmic growth phase. The RPMI 1640 medium used for culture was prepared as follows: per liter of ultrapure water, RPMI 1640 medium (10.4 g), HEPES (2.38 g), injectable penicillin G potassium (100,000 units), streptomycin sulfate injectable (100 mg) and NaHCO3 (2.0 g) were suspended and then filter-sterilized. Then, the RPMI 1640 medium was supplemented with FCS and used for cell culture. Per liter of ultrapure water, NaCl (8.0 g), KCl (0.2 g), Na2HPO4 (1.15 g) and KH2PO4 (0.2 g) were dissolved to prepare PBS, which was then sterilized in an autoclave.
# Eriodictyol and structural analogs thereof, i.e., naringenin and hesperetin, as well as glycosides thereof, i.e., eriocitrin, naringin and hesperidin were each adjusted to 5 mM with 100% dimethyl sulfoxide (DMSO) and stored at −30° C. EGCG and (−)-gallocatechin gallate (GCG) were each adjusted to 5 mM with ultrapure water and stored at −30° C. EGCG 3″Me was adjusted to 5 mM with 10% DMSO dH2O and stored at −30° C.
# U266 adjusted to 5×10^4 cells/mL in RPMI 1640 containing 1% FCS, SOD (5 U/mL) and catalase (200 U/mL) was seeded in 24-well plates and cultured for 96 hours in the presence of EGCG and analogs thereof or eriodictyol and analogs thereof added at a final concentration of 5 μM each. After culture, viable cells were counted by trypan blue assay.
# For statistical processing of the experimental results, Student's test was used and P<0.05 was considered statistically significant in comparison with control data in the vehicle group.
smiles,measurement,setting,value
O=C1C[C@@H](c2ccc(O)c(O)c2)Oc2cc(O)cc(O)c21 [eriodictyol],effect on EGCG-induced caspase-3 activation in tumors,caspase-3,remarkably enhance the ability of EGCG to induce caspase-3 activation
same,effect on amyotrophy (quadriceps femoris weight),[1],no effect on amyotrophy
same,enhancement of the anticancer effect (viable cells) of EGCG,[2]; combined with EGCG,remarkably enhance the anticancer effect
same,enhancement of the anticancer effect (viable cells) of EGCG 3″Me,[2]; combined with EGCG 3″Me,remarkably enhance the anticancer effect
same,enhancement of the anticancer effect (viable cells) of GCG,[2]; combined with GCG (gallocatechin gallate),remarkably enhance the anticancer effect
